Values quoted from earlier work in paper PMC5501742 (Cancer discovery, 2017).

Settings: cited from earlier work

## Nc1cc(C(F)(F)F)c(-c2cc(N3CCOCC3)nc(N3CCOCC3)n2)cn1 [Buparlisib]
  frequent treatment-related AEs: rash, hyperglycemia, diarrhea, and mucositis
